One data set relates to L-1 sarcoma cells. The conditions noted are these: in vivo; cited from earlier work.
The test system of a further data set is Lu-ECAM-1. The conditions noted are these: among a series of carbohydrates; cited from earlier work.
The subject of data set [1] is B16-F0 murine melanoma cells. In words: in vivo metastasis test, syngeneic tumor metastasis model of melanoma B16-F0 cells in C57BL/6J mice. The conditions noted are these: for % Inhibition: vs vehicle control. The procedure:
An in vivo metastasis test was performed, wherein groups of 6 (positive control), 6 (Morinda citrifolia-PPT test group), and 9 (vehicle control) immunocompetent (6-8 weeks old), pathogen-free (SPF) C57BL/6 male mice were used in this study and bred in animal isolator (IVC racks) under specific pathogens free (SPF) condition at 23±1° C. Viable B16F0 murine melanoma cells (ATCC CRL-6322, 6×10^4 in 0.2 mL) were inoculated into experimental mice intravenously, via tail vein. Mice were administered the Morinda citrifolia-PPT, 1% in drinking water ad libitum, for one week prior to tumor cell implantation and three weeks afterwards. Additionally, 0.8 mg Morinda citrifolia-PPT/mouse was injected intraperitoneally (IP) for 21 consecutive days following tumor cell implantation. Concurrently, the reference agent, mitomycin, was administrated IP at 1 mg/Kg twice per week for six doses after tumor cell implantation.
(§1) In the vehicle control group, the distilled water was administrated at 10 ml/Kg IP for three consecutive weeks. The body weight for all mice was recorded at day 1, day 8, day 15, and day 22 following tumor cell implantation. The lungs were excised and fixed 21 days after tumor inoculation. Metastatic nodules on the lung surface were then counted under a dissecting microscope. The student's t test was used to determine the statistical difference between the groups of treatment and vehicle control groups in a statistic analysis.
Relating to the Table 1 above, viable B16-F0 murine melanoma cells were inoculated into C57B1/6J mice. Mice were administered ad libitum 1% Morinda citrifolia-PPT one week prior to the implantation and throughout the experiment. […] distilled water (vehicle control), 0.8 mg/m and 4 mg/mouse of Morinda citrifolia-PPT were injected I.P. into mice for 21 consecutive days following the inoculation. Mitomycin was used as a positive control and injected twice a week at 1 mg/Kg for a total of six doses. The lungs were excised and fixed at the end of experiment and the metastasis nodules on the lung surface were counted under a dissecting microscope. The test was used to determine the significant difference between the groups of treatment and vehicle control. (SEM=standard error of mean; ^b p<0.006; ^c p<0.005.)
In the syngeneic tumor metastasis model of melanoma B16-F0 cells in C57BL/6J mice, MDA-4 was administered at 1% (10 mg/ml) by a drinking method for one week for pre-treatment, and for three weeks after the tumor cells were implanted, during the study and throughout the experiment for a total of 28 treatments. Additionally, MDA-4 at a dose of 0.8 mg/mouse was administered intraperitoneally (IP) daily for a total of 21 consecutive days after tumor cells were implanted in the mice.
During the experiment, the test substance MDA-4 was provided by Morinda, Inc. and used for in vivo anti-metastasis studies. MDA-4 was dissolved in sterile distilled water and, as stated, administrated with 1% (10 mg/ml) drinking method for one week pre-treatment, and three week after tumor cells were implanted during the study throughout the experiment for a total of 28 treatments. Additionally, as stated, MDA-4 at dose of 0.8 mg/mouse was administrated intraperitoneally (IP) daily for a total of 21 consecutive days after tumor cells implanted.
The murine melanoma cell line, B16-F0 (ATCC CRL-6322), was purchased from American Type Culture Collection and Dulbecco's Modified Eale's medium, 90% with Fetal Bovine Serum, 10% was used as culture medium. The tumor cells were incubated in an atmosphere containing 5% CO2 at 37° C. The medium was supplemented with 1% Antibiotic-Antimycotic.
Specific pathogen-free male C57BL/6J mice at 6-8 weeks of age, weighing 24-28 gms were provided by National Taiwan University Animal Center. The animals were housed in Individually Ventilated Cages Racks (IVC Racks, 36 Mini Isolator System) under Specific Pathogen-Free (SPF) conditions throughout the experiment. […]

Data set [2] in a line: body weight post-implantation and toxic symptoms in the metastasis study. In kind it is in vivo, mice. The procedure:
as §1

Data set [3] concerns NRK 2 cells, fibronectin-coated well. In words: adhesion of NRK 2 cells to a fibronectin-coated well. In kind it is cell-based, rat. The protocol:
One assay measured the adhesion of NRK 2 (normal rat kidney cell, ATCC CRL-6509) cells to a fibronectin-coated well. Morinda citrifolia-PPT, the 0.1 N NaCl Morinda citrifolia-PPT fraction, GRGDSP peptide (SIGMA), and 0.4% DMSO (SIGMA, vehicle control) in modified MEM-HEPES buffer pH 7.4 (Hyclone) were incubated in separate wells for 30 minutes at 37° C. The reaction was initiated by addition of NRK 2 cells (2×10^6/ml) and run for 30 minutes. Each well was then washed 6 times with Dulbecco's PBS (Hyclone) followed by addition of 5 μM calcein AM (SIGMA) and a further 2 hour incubation period. Quantitation of fluorescent intensity, resulting from interaction of calcein AM with cells attached to the fibronectin coated plate, was read by a SpectrFluor Plus plate reader (AG Flwith excitation at 485 nm and emission at 535 nm.
Relating to Table 3, NRK 2 cells were used to adhere to fibronectin-coated wells. Quantitation of fluorescent intensity resulting from interaction of calcein AM with cells attached to the fibronectin coated plate was read by a SpectrFluor Plus plate reader.

The mark [4] stands for this setting: individual mouse, R = diameter of nodule.

Where “and” joins values, the source holds several entries; their conditions need not be identical. Identical values can stand only once. Marks after values point to notes of the source that are not given here.

Consider `O=C[C@H](O)[C@@H](O)[C@@H](O)[C@H](O)CO` [D-galactose], for which the “inhibition of liver metastasis” value in the data set on L-1 sarcoma cells is listed as “inhibit”.
In the case of `CC(=O)NC1C(OC2C(O)C(CO)OC(OC3C(CO)OC(O)C(O)C3O)C2O)OC(CO)C(O)C1OC1OC(CO)C(O)C(O)C1OC1OC(C)C(O)C(O)C1O` (stereo not shown) [Lacto-N-fucopentose I], the “blocking of adhesion of B16-F10 to Lu-ECAM-1” value in the data set on Lu-ECAM-1 is given as “most effectively blocked adhesion”.
With `CO[C@@]12[C@H](COC(N)=O)C3=C(C(=O)C(C)=C(N)C3=O)N1C[C@@H]1N[C@@H]12` [Mitomycin], in data set [1] (PPT at 0.8 mg/mouse combined with free drinking, mitomycin at 1 mg/Kg), the metastasis inhibition was found to be 55%. For the same compound, the “% Inhibition” value in data set [1] (Table 1, PPT 0.8 mg/mouse, mitomycin 1 mg/Kg) is recorded as 60%^c. In data set [1] (Table 4, mean ± SEM, MDA-4 drinking 1% x28 & IP 0.8 mg/mouse x21, mitomycin IP 1 mg/kg x6), the “No. of Metastastic Nodules in the Lung” value amounted to 22 ± 2. The “% Inh.” value in data set [1] (Table 4, vs vehicle, MDA-4 drinking 1% x28 & IP 0.8 mg/mouse x21, mitomycin IP 1 mg/kg x6) amounted to 55%. The “No. of Metastastic Nodules in the Lung, Total Nodules, X ± SEM” value in data set [1] (Table 5, group mean) is given as 22 ± 2. Besides, in data set [1] (Table 5, individual mouse), the “No. of Metastastic Nodules in the Lung, Total Nodules” value was 23 and 24 and 19. In data set [1] (Table 5, MDA-4 drinking 1% x28 & IP 0.8 mg/mouse x21, mitomycin IP 1 mg/kg x6), the “% Inhibition” value is recorded as 55%. In addition, in data set [1] (setting [4]), the “No. of Metastastic Nodules in the Lung, 1 mm<” value is 6 and 7 and 4; the “No. of Metastastic Nodules in the Lung, R < 1 mm” value is 16 and 17 and 15; the “No. of Metastastic Nodules in the Lung, R > 2 mm” value is 1 and 0 (2×). Moreover, the “No. of Metastasis Nodules in the Lung” value in data set [1] (individual mouse, lungs excised 21 days after inoculation, PPT 0.8 mg/mouse IP x21 + 1% in drinking water, mitomycin 1 mg/Kg IP x6) was 23 and 24 and 19. In data set [2] (group mean), the “Body Weight of Post-Implantation, Day 1, Mean ± SEM” value is reported as 27.7 ± 0.9 g; the “Body Weight of Post-Implantation, Day 8, Mean ± SEM” value is on record as 28.0 ± 0.6 g; the “Body Weight of Post-Implantation, Day 15, Mean ± SEM” value was 27.3 ± 0.9 g; the “Body Weight of Post-Implantation, Day 22, Mean ± SEM” value was 27.3 ± 0.9 g. For the same compound, the “body weight change compared to the vehicle control group” value in data set [2] (in words) was “no body weight increase”. Further, in data set [2] (individual mouse), the “Body Weight of Post-Implantation, Day 1” value was 28 g and 29 g and 26 g; the “Body Weight of Post-Implantation, Day 8” value is 28 g and 29 g and 27 g; the “Body Weight of Post-Implantation, Day 15” value is 27 g and 29 g and 26 g; the “Body Weight of Post-Implantation, Day 22” value was 27 g and 29 g and 26 g.
As to GRGDSP peptide, the “Percentage adhesion inhibition, fibronectin mediated” value in data set [3] (Conc. 31.25 μg/ml) turned out to be 16; in data set [3] (Conc. 62.5 μg/ml), 22; in data set [3] (Conc. 125 μg/ml), 43; in data set [3] (Conc. 250 μg/ml), 78; in data set [3] (Conc. 500 μg/ml), 98.
As to arabinogalctose, the “inhibition of liver metastasis” value in the data set with L-1 sarcoma cells is “inhibit”.
